In patent US5663139A, “Inhibitors of retroviral proteases” (Hoechst Aktiengesellschaft, priority 1992, dated 1997):
Structures can show the parent of a compound that is named as a salt.

target: T1, HIV protease (Human immunodeficiency virus type 1 group M subtype B, UniProt P04585); experiment: HIV protease enzyme test (HPLC cleavage of heptapeptide substrate H-Ser-Phe-Asn-Phe-Opr-Gln-Ile-OH); type: biochemical; conditions: inhibitor concentration at which the cleavage rate is halved, 37° C., 2 hours
T1 construct: The HIV protease is composed of 99 amino acids and evidently excises itself out of the pol polyprotein
Excerpt: In particular, they inhibit HIV protease. Their enzyme-inhibitory effect, which is in the milli- to subnano-molar range, can be determined as follows.
The substrates of the HIV protease which have been employed thus far include the heptapeptide: H-Ser-Phe-Asn-Phe-Pro-Gln-Ile-OH (SEQ ID NO. 1) (P. L. Darke et al., Biophys. Res. Commun. 156 (1988) 297-303). When this peptide is used as the substrate, the HIV protease cleaves it between the second Phe and the Pro.
General instructions for testing inhibitors of the HIV proteases:
2 mg of H-Ser-Phe-Asn-Phe-Opr-Gln-Ile-OH (H-Opr-OH=5-oxaproline) (SEQ ID NO. 1) are dissolved in 1 ml of MGTE 15 buffer (use of ultrasonication if required) and this solution is subsequently filtered through a sterilizing filter (0.45 μm).
2.5 times the necessary quantity of inhibitor to give the desired molarity per ml of solution is weighed out and dissolved in DMSO (10% of the final volume). This solution is diluted with MGTE 15 buffer to the final volume and then filtered through a sterilizing filter (0.45 μm).
5 μl of the HIV protease solution are diluted with MGTE25 buffer as required.
In each case, 10 μl of the substrate solution are pipetted into a test tube (16×100) having a screw cap. 10 μl of MGTE 15 buffer, which contains 10% DMSO, are pipetted in for the blank experiment. 10 μl of the inihibitor solutions are added to each of the remaining test tubes. The tubes are incubated at 37° C. for 5-10 minutes and 5 μl of the protease solution are then added to each sample. Following reaction at 37° C. for 2 hours, 10 or 20 μl (depending on the sensitivity of the HPLC equipment) are pipetted out from each sample, added to microvials and diluted with 120 μl of the HPLC eluant.
e) Conditions for the HPLC Analysis
Under the conditions chosen for this experiment, the heptapeptide is separated from the N-terminal tetrapeptide resulting from the enzymic cleavage. The % content of tetrapeptide peak related to the sum of tetrapeptide+heptapeptide gives the cleavage rate. The following IC50 values indicate the inhibitor concentrations at which the cleavage rate is halved: […]

SMILES	IC50
CCOP(=O)(C(Cc1ccccc1)NC(=O)[C@@H](NC(=O)[C@@H](N)Cc1cccc2ccccc12)C(C)C)C(O)C(Cc1ccccc1)NC(=O)[C@@H](NC(=O)[C@@H](N)Cc1cccc2ccccc12)C(C)C (stereo partly drawn) [Example 7, Ethyl 1-{2-[(L-naphthylalanyl-L-valyl)amino]-1-hydroxy-3-phenylpropyl},1-{1-[(L-naphthylalanyl-L-valyl)amino]-2-phenylethyl}phosphinate bistrifluoroacetate]	15 nM
CC(C)[C@H](NC(=O)C(Cc1cccc2ccccc12)CS(=O)(=O)C(C)(C)C)C(=O)NC(Cc1ccccc1)C(O)P(=O)(O)C(Cc1ccccc1)NC(=O)[C@@H](NC(=O)C(Cc1cccc2ccccc12)CS(=O)(=O)C(C)(C)C)C(C)C (stereo partly drawn) [Example 10, 1-{2-[((2S(tert-Butylsulfonylmethyl)-3-(1-naphthyl)-propionyl)-L-valyl)amino]-1-hydroxy-3-phenylpropyl},1-{1-[((2S(tert-butylsulfonylmethyl)-3-(1-naphthyl)propionyl)-L-valyl)amino]-2-phenylethyl}phosphinic acid]	4.2 nM
CC(C)[C@H](NC(=O)[C@@H](N)Cc1cccc2ccccc12)C(=O)NC(Cc1ccccc1)C(O)P(=O)(O)C(Cc1ccccc1)NC(=O)[C@@H](NC(=O)[C@@H](N)Cc1cccc2ccccc12)C(C)C (stereo partly drawn) [Example 8, 1-{2-[(L-Naphthylalanyl-L-valyl)amino]-1-hydroxy-3-phenylpropyl},1-{1-[(L-naphthylalanyl-L-valyl)amino]-2-phenylethyl}phosphinic acid dihydrobromide]	0.5 nM
CC(C)[C@H](NC(=O)OCc1ccccc1)C(=O)NC(Cc1ccccc1)C(O)P(=O)(O)C(Cc1ccccc1)NC(=O)[C@@H](NC(=O)OCc1ccccc1)C(C)C (stereo partly drawn) [Example 4, 1-{2-[(Benzyloxycarbonyl-L-valyl)amino]-1-hydroxy-3-phenylpropyl},1-{-[(benzyloxycarbonyl-L-valyl)amino]-2-phenylethyl}phosphinic acid]	1.3 nM
CCOP(=O)(C(Cc1ccccc1)NC(=O)[C@@H](NC(=O)OCc1ccccc1)C(C)C)C(O)C(Cc1ccccc1)NC(=O)[C@@H](NC(=O)OCc1ccccc1)C(C)C (some centres unmarked) [Example 3]	70 nM
